# Reference: ChEMBL document CHEMBL1148807 (J Med Chem, 2007)
# Calls of active or inactive are those of the source. No cut-off for these calls is given here. Non-standard residues stand in square brackets, D forms with d. Residues, ends and D or L forms follow the SMILES beside them. *: point of attachment. X1 = O=C(Cc1ccc(O)cc1)*
# Tests used:
# Vasopressin V1a receptor [1] = biological target: T1, Vasopressin V1a receptor (Homo sapiens, UniProt P37288); test: Inhibition of human vasopressin V1a receptor expressed in COS7 cells by HTRF-FRET assay using 96-well plate cells; format: cell-based; conditions: cos-7
# Target sequence in this assay (P37288 whole entry): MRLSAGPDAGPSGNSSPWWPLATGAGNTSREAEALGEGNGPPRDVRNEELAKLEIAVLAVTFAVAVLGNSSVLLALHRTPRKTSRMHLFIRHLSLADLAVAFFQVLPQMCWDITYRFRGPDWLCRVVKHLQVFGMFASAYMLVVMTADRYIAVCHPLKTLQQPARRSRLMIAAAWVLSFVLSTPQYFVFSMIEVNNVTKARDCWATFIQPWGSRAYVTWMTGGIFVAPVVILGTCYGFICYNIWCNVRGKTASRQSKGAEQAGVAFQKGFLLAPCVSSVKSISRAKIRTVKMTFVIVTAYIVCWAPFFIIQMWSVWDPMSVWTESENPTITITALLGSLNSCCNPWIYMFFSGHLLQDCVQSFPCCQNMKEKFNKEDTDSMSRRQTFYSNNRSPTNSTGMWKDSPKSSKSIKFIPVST
# Vasopressin V1a receptor [2] = biological target: T1, Vasopressin V1a receptor; test: Inhibition of human vasopressin V1a receptor expressed in COS7 cells by HTRF-FRET assay using 384-well plate membranes; format: cell-based; conditions: cos-7
# Target sequence in this assay (P37288 whole entry): as above
# Vasopressin V1a receptor [3] = biological target: T1, Vasopressin V1a receptor; test: Inhibition of human vasopressin V1a receptor expressed in CHO cells by polarisation binding assay using 384-well plate membranes; format: cell-based
# Target sequence in this assay (P37288 whole entry): as above
# Vasopressin V1a receptor [4] = biological target: T1, Vasopressin V1a receptor; test: Inhibition of human vasopressin V1a receptor expressed in CHO cells by polarisation binding assay using 96-well plate membranes; format: cell-based
# Target sequence in this assay (P37288 whole entry): as above
# Vasopressin V1a receptor [5] = biological target: T1, Vasopressin V1a receptor; test: Inhibition of human vasopressin V1a receptor expressed in COS7 cells by HTRF-FRET assay using 96-well plate membranes; format: cell-based; conditions: cos-7
# Target sequence in this assay (P37288 whole entry): as above
# Vasopressin V1b receptor = biological target: T2, Vasopressin V1b receptor (Homo sapiens, UniProt P47901); test: Displacement of [3H]AVP from human vasopressin V1b receptor expressed in CHO cells; format: cell-based
# T2 sequence (P47901 whole entry): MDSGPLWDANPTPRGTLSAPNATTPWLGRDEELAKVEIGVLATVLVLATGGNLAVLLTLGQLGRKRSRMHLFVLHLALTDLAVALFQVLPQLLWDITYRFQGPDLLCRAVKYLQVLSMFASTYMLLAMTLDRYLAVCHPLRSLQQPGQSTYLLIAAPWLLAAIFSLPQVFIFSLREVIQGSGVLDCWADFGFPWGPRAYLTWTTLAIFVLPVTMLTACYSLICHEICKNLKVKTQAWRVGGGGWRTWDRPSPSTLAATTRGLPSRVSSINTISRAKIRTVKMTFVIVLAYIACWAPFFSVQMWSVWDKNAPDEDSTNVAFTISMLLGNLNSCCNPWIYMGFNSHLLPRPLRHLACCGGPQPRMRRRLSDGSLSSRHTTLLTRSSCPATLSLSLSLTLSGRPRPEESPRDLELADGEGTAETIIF
# Vasopressin V1a receptor [6] = biological target: T1, Vasopressin V1a receptor; test: Antagonist activity at human vasopressin V1a receptor expressed in CHO cells assessed as AVP-induced inositol monophosphate accumulation by IP-one ELISA test; format: functional, cell-based
# Target sequence in this assay (P37288 whole entry, looked up): as the sequence (P37288 whole entry) above
# Vasopressin V1a receptor [7] = biological target: T1, Vasopressin V1a receptor; test: Agonist activity at human vasopressin V1a receptor expressed in CHO cells assessed as accumulation of inositol phosphate up to 1 uM; format: functional, cell-based
# Target sequence in this assay (P37288 whole entry, looked up): as the sequence (P37288 whole entry) above
# [8] = biological target: T3, Oxytocin receptor (Homo sapiens) (UniProt P30559); test: Antagonist activity at oxytocin receptor expressed in CHO cells assessed as AVP-induced inositol monophosphate accumulation by IP-one ELISA test; format: functional, cell-based
# T3 sequence (whole entry): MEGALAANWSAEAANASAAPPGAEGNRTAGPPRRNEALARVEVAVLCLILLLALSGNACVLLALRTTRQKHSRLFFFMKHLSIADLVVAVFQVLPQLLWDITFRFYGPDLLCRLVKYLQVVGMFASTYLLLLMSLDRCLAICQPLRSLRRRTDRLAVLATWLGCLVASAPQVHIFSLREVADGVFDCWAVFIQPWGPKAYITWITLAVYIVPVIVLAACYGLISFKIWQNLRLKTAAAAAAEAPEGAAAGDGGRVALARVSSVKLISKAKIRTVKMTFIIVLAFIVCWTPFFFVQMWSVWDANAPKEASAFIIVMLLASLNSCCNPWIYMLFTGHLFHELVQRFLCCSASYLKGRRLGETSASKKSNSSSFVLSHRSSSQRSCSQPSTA
# [9] = biological target: T3, Oxytocin receptor (Homo sapiens); test: Agonist activity at human oxytocin receptor expressed in CHO cells assessed as accumulation of inositol phosphate up to 1 uM; format: functional, cell-based
# Vasopressin V2 receptor = Vasopressin V2 receptor (Homo sapiens, UniProt P30518); test: Displacement of [3H]AVP from human vasopressin V2 receptor expressed in CHO cells; format: cell-based
# Vasopressin V1a receptor [10] = biological target: T1, Vasopressin V1a receptor; test: Displacement of [3H]AVP from human vasopressin V1a receptor expressed in CHO cells; format: cell-based
# Target sequence in this assay (P37288 whole entry): as the sequence (P37288 whole entry) above
# Oxytocin receptor = biological target: T4, Oxytocin receptor (Homo sapiens, UniProt P30559); test: Displacement of [3H]AVP from human oxytocin receptor expressed in CHO cells; format: cell-based
# T4 sequence (P30559 whole entry): T3 sequence (whole entry)
# Sequence of Vasopressin V2 receptor (P30518 whole entry): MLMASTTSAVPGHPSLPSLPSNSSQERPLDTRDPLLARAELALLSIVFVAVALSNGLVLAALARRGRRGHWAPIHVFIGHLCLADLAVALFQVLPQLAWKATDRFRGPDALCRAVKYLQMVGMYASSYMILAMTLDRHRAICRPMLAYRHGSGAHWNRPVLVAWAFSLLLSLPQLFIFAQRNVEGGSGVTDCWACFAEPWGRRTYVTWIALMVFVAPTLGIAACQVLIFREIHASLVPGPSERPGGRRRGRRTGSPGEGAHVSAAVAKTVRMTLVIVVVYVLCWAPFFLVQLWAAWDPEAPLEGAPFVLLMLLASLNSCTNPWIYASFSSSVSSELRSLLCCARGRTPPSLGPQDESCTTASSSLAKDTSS
Ki (Vasopressin V1a receptor [1]),Ki (Vasopressin V1a receptor [2]),Ki (Vasopressin V1a receptor [3]),Ki (Vasopressin V1a receptor [4]),Ki (Vasopressin V1a receptor [5]),Ki (Vasopressin V1b receptor),Kinact (Vasopressin V1a receptor [6]),Activity (Vasopressin V1a receptor [7]),Kinact [8],Activity [9],Ki (Vasopressin V2 receptor),Ki (Vasopressin V1a receptor [10]),Ki (Oxytocin receptor),Structure (SMILES)
0.28 nM,0.21 nM,0.032 nM,0.036 nM,0.21 nM,,,,,,,,,COc1ccc(C[C@@H](NC(=O)Cc2ccc(O)cc2)C(=O)N[C@@H](Cc2ccccc2)C(=O)N[C@@H](CCC(N)=O)C(=O)N[C@@H](CC(N)=O)C(=O)N[C@@H](CCCN=C(N)N)C(=O)N2CCC[C@H]2C(=O)N[C@@H](CCCN=C(N)N)C(N)=O)cc1 (X1-[dY](Me)FQNRPR-NH2)
,,,,,100 nM,0.28 nM,inactive,0.17 nM,inactive,> 1000 nM,0.09 nM,1.04 nM,CC1CC(C)(C)Nc2c1cc1c(c2S(=O)(=O)O)OC2C(=C1c1c(Cl)c(SCC(=O)NCCCCCC(=O)N(C(=O)[C@H]3CCN(C(=O)[C@H](CCCNC(=N)N)NC(=O)[C@H](CC(N)=O)NC(=O)[C@H](CCC(N)=O)NC(=O)[C@H](Cc4ccccc4)NC(=O)[C@@H](Cc4ccc(O)cc4)N(C)C(=O)CCc4ccc(O)cc4)C3)[C@@H](CCCCN)C(N)=O)c(Cl)c(Cl)c1C(=O)O)CC1C(=NC(C)(C)CC1C)C2S(=O)(=O)O (stereo partly drawn)
